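At the GI50, growth is halved. TGI denotes the concentration required for complete inhibition of growth.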
Key:
Test in all cases: DTP human tumour cell line panel, 384-well format
786-0 renal = tested on: 786-0 renal
A498 renal = tested on: A498 renal
A549 NSCLC = tested on: A549 NSCLC
ACHN renal = tested on: ACHN renal
BT-549 breast = tested on: BT-549 breast
CAKI-1 renal = tested on: CAKI-1 renal
COLO 205 colon = tested on: COLO 205 colon
DU-145 prostate = tested on: DU-145 prostate
EKVX NSCLC = tested on: EKVX NSCLC
HCT-116 colon = tested on: HCT-116 colon
HCT-15 colon = tested on: HCT-15 colon
HL-60(TB) leukemia = tested on: HL-60(TB) leukemia
HOP-62 NSCLC = tested on: HOP-62 NSCLC
HOP-92 NSCLC = tested on: HOP-92 NSCLC
HS 578T breast = tested on: HS 578T breast
HT29 colon = tested on: HT29 colon
IGROV1 ovarian = tested on: IGROV1 ovarian
K-562 leukemia = tested on: K-562 leukemia
KM12 colon = tested on: KM12 colon
M14 melanoma = tested on: M14 melanoma
MALME-3M melanoma = tested on: MALME-3M melanoma
MDA-MB-231 breast = tested on: MDA-MB-231 breast
MDA-MB-435 melanoma = tested on: MDA-MB-435 melanoma
MDA-MB-468 breast = tested on: MDA-MB-468 breast
MOLT-4 leukemia = tested on: MOLT-4 leukemia
NCI-H226 lung = tested on: NCI-H226 lung
NCI-H23 lung = tested on: NCI-H23 lung
NCI-H322M lung = tested on: NCI-H322M lung
NCI-H460 NSCLC = tested on: NCI-H460 NSCLC
NCI-H522 lung = tested on: NCI-H522 lung
OVCAR-3 ovarian = tested on: OVCAR-3 ovarian
OVCAR-4 ovarian = tested on: OVCAR-4 ovarian
OVCAR-5 ovarian = tested on: OVCAR-5 ovarian
OVCAR-8 ovarian = tested on: OVCAR-8 ovarian
PC-3 prostate = tested on: PC-3 prostate
RXF 393 renal = tested on: RXF 393 renal
SF-268 CNS = tested on: SF-268 CNS
SF-295 CNS = tested on: SF-295 CNS
SF-539 CNS = tested on: SF-539 CNS
SK-MEL-2 melanoma = tested on: SK-MEL-2 melanoma
SK-MEL-28 melanoma = tested on: SK-MEL-28 melanoma
SK-MEL-5 melanoma = tested on: SK-MEL-5 melanoma
SK-OV-3 ovarian = tested on: SK-OV-3 ovarian
SN12C renal = tested on: SN12C renal
SNB-19 CNS = tested on: SNB-19 CNS
SNB-75 CNS = tested on: SNB-75 CNS
SR leukemia = tested on: SR leukemia
SW-620 colon = tested on: SW-620 colon
T-47D breast = tested on: T-47D breast
TK-10 renal = tested on: TK-10 renal
U251 glioblastoma = tested on: U251 glioblastoma
UACC-257 melanoma = tested on: UACC-257 melanoma
UACC-62 melanoma = tested on: UACC-62 melanoma
UO-31 renal = tested on: UO-31 renal

Nc1nc(Nc2ccc3c(c2)CC[C@@H](N2CCCC2)CC3)nn1-c1cc2c(nn1)-c1ccccc1CCC2
GI50 ([…]-0 renal): 0.456 µM | TGI (786-0 renal): 1.64 µM | GI50 (A498 renal): 0.327 µM | TGI (A498 renal): 1.19 µM | GI50 (A549 NSCLC): 1.38 µM | TGI (A549 NSCLC): 2.7 µM | GI50 (ACHN renal): 0.431 µM | TGI (ACHN renal): 1.51 µM | GI50 (BT-549 breast): 1.08 µM | TGI (BT-549 breast): 2.27 µM | GI50 (CAKI-1 renal): 0.493 µM | TGI (CAKI-1 renal): 1.72 µM | GI50 (COLO 205 colon): 1.5 µM | TGI (COLO 205 colon): 2.84 µM | GI50 (DU-145 prostate): 0.939 µM | TGI (DU-145 prostate): 2.16 µM | GI50 (EKVX NSCLC): 1.02 µM | TGI (EKVX NSCLC): 2.19 µM | GI50 (HCT-116 colon): 0.478 µM | TGI (HCT-116 colon): 1.73 µM | GI50 (HCT-15 colon): 0.564 µM | TGI (HCT-15 colon): 1.8 µM | GI50 (HL-60(TB) leukemia): 1.21 µM | TGI (HL-60(TB) leukemia): 2.45 µM | GI50 (HOP-62 NSCLC): 1.02 µM | TGI (HOP-62 NSCLC): 2.19 µM | GI50 (HOP-92 NSCLC): 0.798 µM | TGI (HOP-92 NSCLC): 2.07 µM | GI50 (HS 578T breast): 0.262 µM | TGI (HS 578T breast): 1.27 µM | GI50 (HT29 colon): 0.326 µM | TGI (HT29 colon): 1.08 µM | GI50 (IGROV1 ovarian): 0.418 µM | TGI (IGROV1 ovarian): 1.55 µM | GI50 (K-562 leukemia): 0.331 µM | TGI (K-562 leukemia): 1.21 µM | GI50 (KM12 colon): 1.07 µM | TGI (KM12 colon): 2.29 µM | GI50 (M14 melanoma): 0.451 µM | TGI (M14 melanoma): 1.59 µM | GI50 (MALME-3M melanoma): 0.284 µM | TGI (MALME-3M melanoma): 0.827 µM | GI50 (MDA-MB-231 breast): 1.63 µM | TGI (MDA-MB-231 breast): 3 µM | GI50 (MDA-MB-435 melanoma): 1.02 µM | TGI (MDA-MB-435 melanoma): 2.19 µM | GI50 (MDA-MB-468 breast): 1.45 µM | TGI (MDA-MB-468 breast): 2.76 µM | GI50 (MOLT-4 leukemia): 0.186 µM | TGI (MOLT-4 leukemia): 0.334 µM | GI50 (NCI-H226 lung): 1.45 µM | TGI (NCI-H226 lung): 2.77 µM | GI50 (NCI-H23 lung): 1.33 µM | TGI (NCI-H23 lung): 2.61 µM | GI50 (NCI-H322M lung): 0.529 µM | TGI (NCI-H322M lung): 1.77 µM | GI50 (NCI-H460 NSCLC): 0.36 µM | TGI (NCI-H460 NSCLC): 1.28 µM | GI50 (NCI-H522 lung): 1.27 µM | TGI (NCI-H522 lung): 2.54 µM | GI50 (OVCAR-3 ovarian): 1.15 µM | TGI (OVCAR-3 ovarian): 2.37 µM | GI50 (OVCAR-4 ovarian): 1.48 µM | TGI (OVCAR-4 ovarian): 2.8 µM | GI50 (OVCAR-5 ovarian): 1.63 µM | TGI (OVCAR-5 ovarian): 3 µM | GI50 (OVCAR-8 ovarian): 1.52 µM | TGI (OVCAR-8 ovarian): 2.86 µM | GI50 (PC-3 prostate): 0.796 µM | TGI (PC-3 prostate): 2.05 µM | GI50 (RXF 393 renal): 0.0259 µM | TGI (RXF 393 renal): 0.545 µM | GI50 (SF-268 CNS): 1.18 µM | TGI (SF-268 CNS): 2.41 µM | GI50 (SF-295 CNS): 0.634 µM | TGI (SF-295 CNS): 1.94 µM | GI50 (SF-539 CNS): 0.244 µM | TGI (SF-539 CNS): 1.11 µM | GI50 (SK-MEL-2 melanoma): 0.415 µM | TGI (SK-MEL-2 melanoma): 1.4 µM | GI50 (SK-MEL-28 melanoma): 1.4 µM | TGI (SK-MEL-28 melanoma): 2.7 µM | GI50 (SK-MEL-5 melanoma): 1.06 µM | TGI (SK-MEL-5 melanoma): 2.25 µM | GI50 (SK-OV-3 ovarian): 0.305 µM | TGI (SK-OV-3 ovarian): 1.24 µM | GI50 (SN12C renal): 0.346 µM | TGI (SN12C renal): 1.68 µM | GI50 (SNB-19 CNS): 1.59 µM | TGI (SNB-19 CNS): 2.96 µM | GI50 (SNB-75 CNS): 1.14 µM | TGI (SNB-75 CNS): 2.35 µM | GI50 (SR leukemia): 0.186 µM | TGI (SR leukemia): 0.328 µM | GI50 (SW-620 colon): 1.14 µM | TGI (SW-620 colon): 2.37 µM | GI50 (T-47D breast): 1.21 µM | TGI (T-47D breast): 2.45 µM | GI50 (TK-10 renal): 1.01 µM | TGI (TK-10 renal): 2.18 µM | GI50 (U251 glioblastoma): 0.761 µM | TGI (U251 glioblastoma): 2.02 µM | GI50 (UACC-257 melanoma): 0.182 µM | TGI (UACC-257 melanoma): 0.368 µM | GI50 (UACC-62 melanoma): 0.773 µM | TGI (UACC-62 melanoma): 2.02 µM | GI50 (UO-31 renal): 1.04 µM | TGI (UO-31 renal): 2.22 µM

From PubChem BioAssay (NCI)
